The source of these data is article PMC5587682 (Scientific Reports, 2017).

In the assay the test system is A/Parma/24/09 H1N1 oseltamivir-resistant virus. It is filed as cell-based, Influenza A virus. The following applies: turkey erythrocytes.

Residues, ends and D or L forms follow the SMILES beside them.

Molecule `C[C@H](NC(=O)[C@H](Cc1c[nH]c2ccccc12)NC(=O)[C@H](CC(=O)O)NC(=O)[C@H](C)NC(=O)[C@@H](NC(=O)[C@H](CO)NC(=O)[C@H](CCC(=O)O)NC(=O)CNC(=O)[C@H](CC(N)=O)NC(=O)[C@@H](N)[C@@H](C)O)[C@@H](C)O)C(=O)N[C@@H](CCCCN)C(=O)N[C@@H](CC(N)=O)C(N)=O` [Peptide 6, TNGESTADWAKN] (H-TNGESTADWAKN-NH2; N-terminus and C-terminus assumed) registered an HI titer of 1.5 nM. As to `C[C@@H](O)[C@H](NC(=O)[C@H](CCC(=O)O)NC(=O)[C@H](CO)NC(=O)[C@@H](N)CCCCN)C(=O)N[C@@H](CCCCN)C(=O)N[C@@H](CC(N)=O)C(=O)O` [Peptide 8, KSETKN] (H-KSETKN-OH; N-terminus and C-terminus assumed), the HI titer came to 0.3 nM. In the case of `CC(C)C[C@H](NC(=O)[C@@H](NC(=O)[C@H](CS)NC(=O)[C@H](CC(=O)O)NC(=O)[C@H](CC(C)C)NC(=O)[C@@H](N)CO)C(C)C)C(=O)N[C@@H](CCCNC(=N)N)C(=O)N1CCC[C@H]1C(N)=O` [Peptide 13, SLDCVLRP] (H-SLDCVLRP-NH2), the HI titer worked out at 0.00015 nM. As to `CC(C)C[C@H](NC(=O)[C@H](CO)NC(=O)[C@H](CO)NC(=O)[C@H](Cc1c[nH]cn1)NC(=O)[C@H](CCCCN)NC(=O)[C@@H](N)CO)C(=O)N[C@@H](CC(=O)O)C(=O)N[C@@H](CS)C(=O)O` [Peptide 16, SKHSSLDC] (H-SKHSSLDC-OH; N-terminus and C-terminus assumed), the HI titer was found to be 12 nM. With “NRKSSKHSSLDCVLRP [Peptide 11, bLf C-lobe fragment 414–429]” the figure was 12 nM; with “NRKSSKHSSLDCVLRPTEGY [Peptide 10, bLf C-lobe fragment 414–433]”, 6 nM; with “SKHSSLDCVLRPTEGY [Peptide 12, bLf C-lobe fragment 418–433]”, 0.1 nM.
